Where two headings read alike, the source gives them in different places.
Tests used:
KP4 = assay: Cell viability assay (CellTiter Glo), pancreatic ductal adenocarcinoma KP4; assay type: cell-based, human
How it was run: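 KP4 cells seeded at 1,000–10,000 per well, treated 96 h with 9-point 3-fold dilutions from 30 μM top (4.6 nM–30 μM, duplicates; ≤0.25% DMSO). Viability by CellTiter Glo luminescence; % inhibition relative to DMSO-only wells, giving IC50, relative IC50 or % top inhibition.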

A549 = assay: Cell viability assay, A549 cells; assay type: cell-based
Description: Example 5: Inducer Compound Effect on Growth of A549 and KP4 Cells
Cell viability assay was performed to assess the potency of the compounds in cancer cell line KP4 (pancreatic ductal adenocarcinoma). Cells at a density of 1,000-10,000 cells/well were seeded in 96-well plates and incubated at 37° C. overnight. A series of 9 different concentrations of compound stocks (500×) were created by 3-fold serial dilution in DMSO. These compounds were further diluted in culture media and then added to cells so that the final DMSO concentration was equal to 0.25% or less. After 96 hours of incubation, 50 μL of CellTiter Glo reagent (Promega) was added to each well and luminescence was measured after 10 minutes using EnVision (PerkinElmer). All compounds were tested initially from 30 μM as the top concentration in duplicates (range of 4.6 nM-30 μM). […] Luminescence from cells treated with DMSO alone was set as Max and % of inhibition was calculated as follows: Inhibition %=(Max-Sample value)/Max*100. Data was analyzed using XL-fit software (ID Business Solutions Ltd.). IC50, relative IC50, or % of top inhibition was calculated. […]

786-O = assay: Cell proliferation (Alamar Blue) assay, 786-O renal cell carcinoma, with/without ferrostatin; assay type: cell-based; conditions: Homo sapiens, 786-0, Cell Line 786-O; read-out: IC50
Description: (§1) Cell viability assay was performed to assess the potency of the compounds in human cancer cell lines 786-O (renal cell carcinoma) and SJSA-1 (osteosarcoma). Additional cell lines, such as those described above in Example 4 as well as various others, e.g., pancreatic cancer cell lines (Panc 02.13, BxPC-3, Panc 12, Panc 02.03, Panc 6.03, PSN-1, HPAC, and Capan-1) and prostate cancer cell lines (PC-3, DU145, 22Rv1, NCI-H660, BPH1, LNCaP, BM-1604, and MDA PCa 2b), were tested for select compounds as shown in Table 25.
(§2) Cells (SJSA-1, 786-O and A431) were seeded (5000 cells/100 μL/well) in 96-well tissue culture plate and incubated at 37° C./5% CO2 for 16-24 hours. The cells were then treated with compounds (25 μL of 5×). The compound concentrations were 10-0.0005 μM prepared in 3-fold serial dilutions with final DMSO concentration of 1%. The plates were then incubated for 24 h at 37° C./5% CO2 in a moist environment. Then Alamar Blue™ reagent (final concentration 1×-12.5 μL) was added to each well and incubated for 1.5 hours at 37° C./5% CO2. The plates were read on fluorescence reader at 540 nm excitation and 590 nm emission wavelengths. The IC50 values were subsequently determined using a sigmoidal dose-response curve (variable slope) in GraphPad Prism® 5 software.
(§3) Studies have shown that lipophilic antioxidants, such as ferrostatin, can rescue cells from GPX4 inhibition-induced ferroptosis. For instance, mesenchymal state GPX4-knockout cells can survive in the presence of ferrostatin, however, when the supply of ferrostatin is terminated, these cells undergo ferroptosis (see, e.g., Viswanathan et al., Nature 547:453-7, 2017). […] Accordingly, the ability of a molecule to induce ferroptotic cancer cell death, and that such ability is admonished by the addition of ferrostatin, is clear indication that the molecule is an GPX4 inhibitor.

SJSA-1 = assay: Cell proliferation (Alamar Blue) assay, SJSA-1 osteosarcoma, with/without ferrostatin; assay type: cell-based, human; conditions: read-out: IC50
Description: as §1, §2, §3

[1] = Whole blood stability, mouse; assay type: in vitro ADME
Excerpt: (§4) The results of the assay on stability in blood and IC50 values for pancreatic cancer cell line KP4 are given below in Table 24.

[2] = Whole blood stability, human; assay type: in vitro ADME
Excerpt: as §4

[3] = Homo sapiens, KP-4, 96 h, pancreatic cancer cell line KP4, 96 hours, CellTiter Glo, read-out: IC50 μM KP4
[4] = Homo sapiens, A549, Cell Line A549, read-out: IC50
[5] = Homo sapiens, KP-4, Cell Line KP4, read-out: IC50
[6] = Homo sapiens, SJSA-1, Cell Line SJSA-1
[7] = Homo sapiens, A549, A549, read-out: IC50 for A549

| SMILES | IC50 (A549; [4]) | IC50 (KP4; [5]) | IC50 (786-O) | IC50 (SJSA-1; [6]) | further results |
| --- | --- | --- | --- | --- | --- |
| C[C@H]1Cc2c([nH]c3ccccc23)[C@H](c2ccc(C3(O)COC3)cc2)N1C(=O)CCl [Compound 236] | 17.5 µM | 1.2 µM | – | – | IC50 (KP4; Cell Line KP4, read-out: IC50): > 1 µM |
| C#CC(=O)N1[C@@H](c2ccc(F)cc2)c2[nH]c3ccccc3c2C[C@@H]1C [Compound 206] | 21.8 µM | – | 1.1 µM | 0.468 µM | – |
| C#CC(=O)N1[C@@H](c2ccc(F)c(F)c2)c2[nH]c3ccccc3c2C[C@@H]1C [Compound 199] | 19.5 µM | – | 0.529 µM | 0.338 µM | – |
| COC(=O)[C@H]1Cc2c([nH]c3ccccc23)[C@H](c2ccc(O)cc2)N1C(=O)CCl [Compound 265] | 25.4 µM | – | – | – | IC50 (KP4; [3]): 0.1 to 0.5 µM; Whole Blood Stability % Remaining at 37° C. Mouse ([1]; 0 min): 100.0%; Whole Blood Stability % Remaining at 37° C. Mouse ([1]; 30 min): 75.5%; Whole Blood Stability % Remaining at 37° C. Mouse ([1]; 60 min): 61.6%; Whole Blood Stability % Remaining at 37° C. Human ([2]; 0 min): 100.0%; Whole Blood Stability % Remaining at 37° C. Human ([2]; 30 min): 61.6%; Whole Blood Stability % Remaining at 37° C. Human ([2]; 60 min): 45.2% |
| C#CC(=O)N1[C@@H](CCCC)Cc2c([nH]c3ccccc23)[C@@H]1C12CC(F)(C1)C2 [Compound 154] | 7.95 µM | – | 0.117 µM | 0.108 µM | – |
| C#CC(=O)N1[C@@H](c2ccc(F)cc2)c2[nH]c3ccccc3c2C[C@@H]1C#N [Compound 190] | 3.05 µM | – | 1.2 µM | 0.908 µM | – |
| C#CC(=O)N1[C@@H](c2c(F)cc(F)cc2F)c2[nH]c3ccccc3c2C[C@@H]1C [Compound 197] | 5.64 µM | – | 0.133 µM | 0.0102 µM | – |
| C#CC(=O)N1[C@@H](c2ccc(Cl)cc2)c2[nH]c3ccccc3c2C[C@@H]1C [Compound 196] | 20.6 µM | – | 0.267 µM | 0.133 µM | – |
| C#CC(=O)N1[C@@H](C)Cc2c([nH]c3ccccc23)[C@@H]1C12CC(F)(C1)C2 [Compound 182] | > 30 µM | – | 0.962 µM | 0.667 µM | – |
| C#CC(=O)N1[C@@H](CCCC)Cc2c([nH]c3c(F)cc(CO)cc23)[C@@H]1c1ccc(F)cc1 [Compound 134] | > 30 µM | – | 8.19 µM | 0.146 µM | – |
| C#CC(=O)N1[C@@H](c2cc(F)cc(F)c2)c2[nH]c3ccccc3c2C[C@@H]1C [Compound 198] | 11.2 µM | – | 0.181 µM | 0.09 µM | – |
| C=C(C(=O)N1[C@@H](CCCC)Cc2c([nH]c3ccccc23)[C@@H]1c1ccc(F)cc1)C(F)(F)F [Compound 184] | > 30 µM | – | 12.3 µM | 16.2 µM | – |
| C#CC(=O)N1[C@@H](CCCC)Cc2c([nH]c3ccc(OC)cc23)[C@@H]1c1ccc(F)cc1 [Compound 155] | 8.52 µM | – | 0.113 µM | 0.081 µM | – |
| CC#CC(=O)N1[C@@H](c2ccc(C(=O)OC)cc2)c2[nH]c3ccccc3c2C[C@@H]1C(=O)OC [Compound 272] | 6.45 µM | 3.99 µM | – | – | – |
| CN(C)C(=O)[C@H]1Cc2c([nH]c3ccccc23)[C@H](c2ccc(N)cc2)N1C(=O)CCl [Compound 259] | 7.97 µM | 0.179 µM | – | – | IC50 (KP4; Cell Line KP4, read-out: IC50): 0.212 µM |
| COC(=O)c1ccc([C@H]2c3[nH]c4ccc(Cl)cc4c3C[C@H](C(=O)OC)N2C(=O)CCl)cc1 [Example 93] | – | – | – | – | IC50 (A549; [7]): 0.25 µM |
| CC(C)(C)OC(=O)c1ccc([C@H]2c3[nH]c4ccccc4c3C[C@H](CO)N2C(=O)CCl)cc1 [Compound 257] | 8.14 µM | 10.4 µM | – | – | – |
| [2H]C([2H])(Cl)C(=O)N1[C@@H](c2ccc(C(=O)NC34CC5CC(CC(C5)C3)C4)cc2)c2[nH]c3ccccc3c2C[C@@H]1C(=O)OC [Compound 250] | 2.4 µM | – | – | – | – |
| C=CC(=O)N1[C@@H](c2ccc(C(=O)OC)cc2)c2[nH]c3ccccc3c2C[C@@H]1C(=O)OC [Compound 274] | 11.8 µM | 4.54 µM | – | – | – |
| COCCOCCOCCOCCOC(=O)[C@H]1Cc2c([nH]c3ccccc23)[C@H](c2ccc(NC34CC5CC(CC(C5)C3)C4)cc2)N1C(=O)CCl [Example 189] | 4.11 µM | – | – | 4.2 µM | – |
| COC(=O)[C@H]1Cc2c([nH]c3ccccc23)[C@H](c2ccc(C(=O)OC(C)(C)C)cc2)N1C(=O)C(C)(C)CCl [Compound 264] | 4.45 µM | 8.69 µM | – | – | – |
| C[C@H]1Cc2c([nH]c3ccc(C(C)(C)O)cc23)[C@H](c2ccc(N3CCOCC3)cc2)N1C(=O)CCl [Compound 235] | 7.18 µM | 0.041 µM | – | – | – |
| C[C@H]1Cc2c([nH]c3ccccc23)[C@H](c2ccc(C3(O)CCOCC3)cc2)N1C(=O)CCl [Compound 237] | 1.86 µM | 0.458 µM | – | – | – |

The next lines start with results.

| IC50 (A549; [4]) | IC50 (KP4; [5]) | IC50 (786-O) | IC50 (SJSA-1; [6]) | SMILES | further results |
| --- | --- | --- | --- | --- | --- |
| 0.807 µM | – | – | – | C[C@H]1Cc2c([nH]c3ccc(Cl)cc23)[C@H](c2ccc(N3CCOCC3)cc2)N1C(=O)CCl [Compound 120] | IC50 (KP4; [3]): 0.1 to 0.5 µM |
| > 30 µM | – | > 30 µM | > 30 µM | C=C(F)C(=O)N1[C@@H](CCCC)Cc2c([nH]c3ccccc23)[C@@H]1c1ccc(F)cc1 [Compound 186] | – |
| > 10 µM | > 10 µM | – | – | C=CC(=O)N1[C@@H](c2ccc(N3CCOCC3)cc2)c2[nH]c3ccccc3c2C[C@@H]1C [Compound 238] | – |
| 28.4 µM | – | > 30 µM | > 30 µM | CC#CC(=O)N1[C@@H](CCCC)Cc2c([nH]c3ccccc23)[C@@H]1c1ccc(F)cc1 [Compound 180] | – |
| 22.2 µM | – | 0.337 µM | 0.163 µM | C#CC(=O)N1[C@@H](CCCC)Cc2c([nH]c3ccccc23)[C@@H]1c1ccc(N2CCOCC2)cc1 [Compound 216] | – |
| 4.71 µM | – | – | – | CC[C@H]1Cc2c([nH]c3ccccc23)[C@H](c2ccc(N3CCOCC3)cc2)N1C(=O)CCl [Compound 117] | IC50 (KP4; [3]): < 0.01 µM; Whole Blood Stability % Remaining at 37° C. Mouse ([1]; 0 min): 100.0%; Whole Blood Stability % Remaining at 37° C. Mouse ([1]; 30 min): 92.3%; Whole Blood Stability % Remaining at 37° C. Mouse ([1]; 60 min): 45.8%; Whole Blood Stability % Remaining at 37° C. Human ([2]; 0 min): 100.0%; Whole Blood Stability % Remaining at 37° C. Human ([2]; 30 min): 80.5%; Whole Blood Stability % Remaining at 37° C. Human ([2]; 60 min): 70.3% |
| 22 µM | > 30 µM | – | – | C[C@H]1Cc2c([nH]c3ccccc23)[C@H](c2ccc(N3CCOCC3)cc2)N1C(=O)/C=C/C(F)(F)F [Compound 230] | – |
| – | 0.362 µM | – | – | C[C@H]1Cc2c([nH]c3ccc(Cl)cc23)[C@H](c2ccc(N3CCOCC3)cc2)N1C(=O)CCl [Example 120] | IC50 (A549; [7]): 0.81 µM |
| > 30 µM | > 30 µM | – | – | C=C(C)C(=O)N1[C@@H](c2ccc(N3CCOCC3)cc2)c2[nH]c3ccccc3c2C[C@@H]1C [Compound 229] | – |
| 4.1 µM | – | – | 0.206 µM | C#CC(=O)N1[C@@H](CCCCCC)Cc2c([nH]c3ccccc23)[C@@H]1c1ccc(F)cc1 [Compound 176] | IC50 (A549; Cell Line A549, read-out: IC50): 4.18 µM; IC50 (SJSA-1; Cell Line SJSA-1): 0.25 µM |
| > 30 µM | > 30 µM | – | – | C/C=C/C(=O)N1[C@@H](c2ccc(N3CCOCC3)cc2)c2[nH]c3ccccc3c2C[C@@H]1C [Compound 228] | – |
| > 30 µM | – | > 10 µM | – | CC(C)=CC(=O)N1[C@@H](c2ccc(N3CCOCC3)cc2)c2[nH]c3ccccc3c2C[C@@H]1C [Compound 225] | – |
| 12.8 µM | 0.102 µM | – | – | CC(C)[C@H]1Cc2c([nH]c3ccccc23)[C@H](c2ccc(N3CCOCC3)cc2)N1C(=O)CCl [Compound 119] | – |

— patent US11098040B2, “Compounds and methods of use” (Ferro Therapeutics, Inc., priority 2018, dated 2021)
